Assay [1] has as its system Raji Burkitt lymphoma cells. The assay can be described thus: Xenograft of tumors derived from Raji Burkitt lymphoma cells in nude mice. It counts as in vivo. The following applies: versus vehicle. On the procedure:
(§1) The in vivo effects of a few selected agents have been evaluated in mouse xenograft models and found to be effective. Protocols follow those described in the literature.^4
(§2) Mice were transplanted with cultured tumor cells and after an incubation period (typically 8-12 days), mice were left untreated or were treated daily with a 30 mg/kg dose of the test compound. Tumor volumes were measured with calipers over […] of treatment. Tumors were excised and weighed at the end of treatment. In some experiments the mice were co-treated daily with a 30 mg/kg dose of the test compound and 5 mg/kg of metformin.
In a separate experiment, this same compound was used in a study using implanted tumors derived from Raji Burkitt lymphoma cells, implanted into nude mice and treated as before with vehicle, with SR-11431, or with SR-11431 plus metformin.

Assay [2] concerns Raji (Burkitt's) lymphoma cells. The assay can be described thus: MTT assay for 4-day viability of Raji (Burkitt's) lymphoma cells. It counts as cell-based. The following applies: Homo sapiens, 96 h, Raji cells (highly express MCT1), estimated values, read-out: approximate potency (EC50 nM). The text has this: Specific Examples of compounds of the invention, with estimated EC50 values determined using an MTT assay for 4-day viability of Raji (Burkitt's) lymphoma cells, a cell line known to highly express MCT1 and to be sensitive to small molecule MCT inhibitors,^4 are shown in Table 3. Assay protocols follow those described in the literature.^4 Other assays that are not described here but that are standard in the field, such as an assay for competitive inhibition of transport of radiolabeled lactic acid, an MCT substrate, may also be useful in establishing mechanism of action of these compounds.

In assay [3] the test system is T47D tumor cells. Briefly: Mouse xenograft experiment using T47D tumor cells. Conditions: 30 mg/kg daily. Format: in vivo, mice. As for the experimental part:
as §1, §2

The structures appear in SMILES notation.

Turning to `CC(C)Cn1c(=O)n(C)c(=O)c2nc(CCCCCO)c(COc3cccc4cnccc34)nc21` [Example 3, 6-(5-hydroxypentyl)-1-isobutyl-7-((isoquinolin-5-yloxy)methyl)-3-methylpteridine-2,4(1H,3H)-dione], the “tumor volume over time” value in assay [1] (30 mg/kg daily (co-treatment: plus 5 mg/kg metformin), 30-day time course) was “Reduction of tumor volume over time”. Besides, in assay [1] (end of treatment (day 32)), the final tumor weight entry is listed as “not significantly changed”. Also, in assay [2], the concentration for a half-maximal effect (EC50) (usually the concentration giving half of the maximal effect) was under 50 nM. The tumor volume result in assay [3] (versus vehicle) is on record as “significant reduction of tumor volume”. In addition, the final tumor mass result in assay [3] (versus vehicle treated animals, end of treatment) is on record as “reduction in final tumor mass”.

Values taken from patent US10874675B2, “Pteridine dione monocarboxylate transporter inhibitors” (The Scripps Research Institute, priority 2015, dated 2020).
